Test results reported in the NIST ThermoML archive (doi:10.1016/j.jct.2013.09.017).
Numbers after ± are expanded uncertainties.

Columns and labels:
[1] = xn = mol fraction of the nth substance listed; conditions: 101 kPa, Liquid; for viscosity: Capillary tube (Ostwald / Ubbelohde) method; for mass density: Vibrating tube method
[2] = 101 kPa, Liquid; for viscosity: Capillary tube (Ostwald / Ubbelohde) method; for mass density: Vibrating tube method

CCCCCCCC [octane] + CCCCCCCCN(CCCCCCCC)CCCCCCCC
[1], x2 = 0
Conditions	mass density [kg/m3]	viscosity [mPa·s]
283.15 K	710.61 ± 0.24	0.613 ± 0.013
293.15 K	702.6 ± 0.25	0.541 ± 0.012
303.15 K	694.5 ± 0.25	0.481 ± 0.01

CCCCCCCCN(CCCCCCCC)CCCCCCCC [trioctylamine] + CCCCCCCC
[1]
Conditions	mass density, 283.15 K [kg/m3]	mass density, 293.15 K [kg/m3]	mass density, 303.15 K [kg/m3]	viscosity, 283.15 K [mPa·s]	viscosity, 293.15 K [mPa·s]	viscosity, 303.15 K [mPa·s]
x1 = 0.1044	737.14 ± 0.27	729.58 ± 0.27	721.95 ± 0.27	1.045 ± 0.023	0.899 ± 0.02	0.78 ± 0.017
x1 = 0.2005	755.2 ± 0.29	747.83 ± 0.29	740.4 ± 0.29	1.63 ± 0.036	1.356 ± 0.03	1.145 ± 0.025
x1 = 0.2992	769.49 ± 0.32	762.3 ± 0.32	755.07 ± 0.32	2.385 ± 0.053	1.933 ± 0.043	1.593 ± 0.035
x1 = 0.4001	780.98 ± 0.36	773.93 ± 0.35	766.85 ± 0.35	3.399 ± 0.076	2.665 ± 0.059	2.145 ± 0.048
x1 = 0.4977	789.85 ± 0.39	782.91 ± 0.39	775.97 ± 0.39	4.545 ± 0.1	3.491 ± 0.079	2.734 ± 0.062
x1 = 0.6012	797.54 ± 0.44	790.72 ± 0.43	783.87 ± 0.43	5.969 ± 0.14	4.482 ± 0.1	3.46 ± 0.079
x1 = 0.7015	803.68 ± 0.48	796.94 ± 0.48	790.09 ± 0.48	7.556 ± 0.17	5.594 ± 0.13	4.231 ± 0.098
x1 = 0.7978	808.69 ± 0.53	802 ± 0.53	795.3 ± 0.52	9.424 ± 0.22	6.848 ± 0.16	5.092 ± 0.12
x1 = 0.897	813.09 ± 0.58	806.45 ± 0.58	799.81 ± 0.57	11.61 ± 0.27	8.242 ± 0.19	6.01 ± 0.14
x1 = 1	817.08 ± 0.64	810.48 ± 0.64	803.88 ± 0.63	14.25 ± 0.34	9.957 ± 0.24	7.114 ± 0.17

CCCCCCCCCC [decane]
[2]
Conditions	mass density [kg/m3]	viscosity [mPa·s]
283.15 K	737.54 ± 0.24	1.082 ± 0.023
293.15 K	730.01 ± 0.24	0.925 ± 0.02
298.15 K	726.22 ± 0.24	0.858 ± 0.019
303.15 K	722.44 ± 0.24	0.797 ± 0.017

CCCCCCC [heptane]
[2]
Conditions	mass density [kg/m3]	viscosity [mPa·s]
283.15 K	692.44 ± 0.25	0.469 ± 0.01
293.15 K	684.05 ± 0.25	0.42 ± 0.009
298.15 K	679.78 ± 0.25	0.397 ± 0.009
303.15 K	675.54 ± 0.25	0.377 ± 0.008

CCCCCCCCC [nonane] + CCCCCCCCN(CCCCCCCC)CCCCCCCC
[1], x2 = 0
Conditions	mass density [kg/m3]	viscosity [mPa·s]
283.15 K	725.58 ± 0.24	0.826 ± 0.018
293.15 K	717.86 ± 0.24	0.713 ± 0.015
303.15 K	710.06 ± 0.24	0.623 ± 0.014

CCCCCCCCN(CCCCCCCC)CCCCCCCC [trioctylamine]
[2]
Conditions	mass density [kg/m3]	viscosity [mPa·s]
283.15 K	817.08 ± 0.64	14.25 ± 0.34
293.15 K	810.48 ± 0.64	9.957 ± 0.24
298.15 K	807.26 ± 0.63	8.392 ± 0.2
303.15 K	803.88 ± 0.63	7.114 ± 0.17

CCCCCCCCN(CCCCCCCC)CCCCCCCC [trioctylamine] + CCCCCCCCC
[1]
Conditions	mass density, 283.15 K [kg/m3]	mass density, 293.15 K [kg/m3]	mass density, 303.15 K [kg/m3]	viscosity, 283.15 K [mPa·s]	viscosity, 293.15 K [mPa·s]	viscosity, 303.15 K [mPa·s]
x1 = 0.1015	746.06 ± 0.27	738.6 ± 0.27	731.08 ± 0.27	1.277 ± 0.028	1.072 ± 0.023	0.918 ± 0.02
x1 = 0.2014	761.56 ± 0.29	754.29 ± 0.29	746.99 ± 0.29	1.932 ± 0.042	1.588 ± 0.035	1.326 ± 0.029
x1 = 0.3016	773.78 ± 0.32	766.67 ± 0.32	759.52 ± 0.32	2.701 ± 0.06	2.163 ± 0.048	1.766 ± 0.039
x1 = 0.3988	783.37 ± 0.36	776.38 ± 0.35	769.35 ± 0.35	3.656 ± 0.081	2.862 ± 0.064	2.273 ± 0.051
x1 = 0.4969	791.34 ± 0.39	784.45 ± 0.39	777.53 ± 0.39	4.815 ± 0.11	3.685 ± 0.083	2.881 ± 0.065
x1 = 0.5956	798.14 ± 0.43	791.33 ± 0.43	784.51 ± 0.43	6.134 ± 0.14	4.579 ± 0.11	3.514 ± 0.08
x1 = 0.6953	803.91 ± 0.48	797.16 ± 0.48	790.4 ± 0.47	7.725 ± 0.18	5.664 ± 0.13	4.267 ± 0.099
x1 = 0.7943	808.76 ± 0.53	802.07 ± 0.52	795.37 ± 0.52	9.548 ± 0.22	6.874 ± 0.16	5.069 ± 0.12
x1 = 0.9025	813.41 ± 0.59	806.77 ± 0.58	800.13 ± 0.58	11.89 ± 0.28	8.466 ± 0.2	6.161 ± 0.15
x1 = 1	817.08 ± 0.64	810.48 ± 0.64	803.88 ± 0.63	14.25 ± 0.34	9.957 ± 0.24	7.114 ± 0.17

CCCCCCCCCC [decane] + CCCCCCCCN(CCCCCCCC)CCCCCCCC
[1], x2 = 0
Conditions	mass density [kg/m3]	viscosity [mPa·s]
283.15 K	737.54 ± 0.24	1.082 ± 0.023
293.15 K	730.01 ± 0.24	0.925 ± 0.02
303.15 K	722.44 ± 0.24	0.797 ± 0.017

CCCCCCCC [octane]
[2]
Conditions	mass density [kg/m3]	viscosity [mPa·s]
283.15 K	710.61 ± 0.24	0.613 ± 0.013
293.15 K	702.6 ± 0.25	0.541 ± 0.012
298.15 K	698.55 ± 0.25	0.51 ± 0.011
303.15 K	694.5 ± 0.25	0.481 ± 0.01

CCCCCCCCN(CCCCCCCC)CCCCCCCC [trioctylamine] + CCCCCCCCCC
[1]
Conditions	mass density, 283.15 K [kg/m3]	mass density, 293.15 K [kg/m3]	mass density, 303.15 K [kg/m3]	viscosity, 283.15 K [mPa·s]	viscosity, 293.15 K [mPa·s]	viscosity, 303.15 K [mPa·s]
x1 = 0.1113	755.32 ± 0.27	748.01 ± 0.27	740.66 ± 0.27	1.64 ± 0.036	1.371 ± 0.03	1.152 ± 0.025
x1 = 0.1979	766.34 ± 0.29	759.17 ± 0.29	751.96 ± 0.29	2.266 ± 0.05	1.837 ± 0.04	1.514 ± 0.033
x1 = 0.297	776.77 ± 0.32	769.72 ± 0.32	762.64 ± 0.32	3.092 ± 0.068	2.448 ± 0.054	1.976 ± 0.044
x1 = 0.3974	785.51 ± 0.36	778.56 ± 0.35	771.59 ± 0.35	4.092 ± 0.091	3.172 ± 0.071	2.515 ± 0.056
x1 = 0.5044	793.3 ± 0.4	786.44 ± 0.39	779.56 ± 0.39	5.402 ± 0.12	4.086 ± 0.092	3.174 ± 0.072
x1 = 0.5913	798.73 ± 0.43	791.93 ± 0.43	785.11 ± 0.43	6.558 ± 0.15	4.896 ± 0.11	3.743 ± 0.086
x1 = 0.6888	804.03 ± 0.48	797.29 ± 0.47	790.53 ± 0.47	8.006 ± 0.18	5.85 ± 0.14	4.389 ± 0.1
x1 = 0.7962	809.11 ± 0.53	802.43 ± 0.53	795.73 ± 0.52	9.857 ± 0.23	7.086 ± 0.17	5.238 ± 0.12
x1 = 0.8991	813.37 ± 0.58	806.73 ± 0.58	800.09 ± 0.57	11.97 ± 0.28	8.401 ± 0.2	6.09 ± 0.14
x1 = 1	817.08 ± 0.64	810.48 ± 0.64	803.88 ± 0.63	14.25 ± 0.34	9.957 ± 0.24	7.114 ± 0.17

CCCCCCC [heptane] + CCCCCCCCN(CCCCCCCC)CCCCCCCC
[1], x2 = 0
Conditions	mass density [kg/m3]	viscosity [mPa·s]
283.15 K	692.44 ± 0.25	0.469 ± 0.01
293.15 K	684.05 ± 0.25	0.42 ± 0.009
303.15 K	675.54 ± 0.25	0.377 ± 0.008

CCCCCCCCC [nonane]
[2]
Conditions	mass density [kg/m3]	viscosity [mPa·s]
283.15 K	725.58 ± 0.24	0.826 ± 0.018
293.15 K	717.86 ± 0.24	0.713 ± 0.015
298.15 K	713.95 ± 0.24	0.667 ± 0.014
303.15 K	710.06 ± 0.24	0.623 ± 0.014
